From US7018642B2 (The Procter & Gamble Company, priority 2001, dated 2006)

test system: P. fluorescens strain ATCC 13525; assay: Biofilm prevention screen (96-well microplate, crystal violet); format: cell-based; conditions: Pseudomonas fluorescens, ATCC13525, 32 μM, positive = prevention, negative = enhancement of biofilm formation, quadruplicate, read-out: average percentage reduction of biofilm formed relative to DMSO controls
Method: (§1) Overnight cultures of 3 mL are made of P. aeruginosa strain PAO1 (grown in R2A medium (Handbook of Microbiological Media; CRC Press, 1997, second edition, R. M. Atlas, ed.), modified to omit Mg^2+ but to include 0.3–0.5% fructose (pH 7.0) and 3 μM ferrous ammonium sulfate), P. fluorescens strain ATCC 13525 (grown in R2A modified to omit Mg^2+ but to include 0.3–0.5% sodium pyruvate (pH 7.0)), S. epidermidis strain ATCC 35984 (grown in a ¼ dilution of TSB (Handbook of Microbiological Media; CRC Press, 1997, second edition, R. M. Atlas, ed.) supplemented with 1% fructose (pH 7.0) and 3 μM ferrous ammonium sulfate). To each type of growth medium, HEPES (pH 7.3) is optionally added to a final concentration of 10 mM.
(§2) To PS, PVC, or PP (preferably PP or PVC) round-bottom, 96-well microplates containing 100 μl per well of the respective growth medium as described above, compounds to be tested (dissolved in DMSO) are added and mixed, to give a final concentration of 250–500 μM. These microplates then also are used to make successive dilutions of the compounds in the same respective growth medium to yield microplates containing final concentrations of, for example, 160 μM and 32 μM of the same set of compounds. Control wells are included in the dilution series that contain only DMSO. From the 3 ml overnight cultures, each of the three dilution plate sets is inoculated with 5 μl per well of a 1:1 dilution in the same liquid growth media of the appropriate culture. The covered plate is then incubated with shaking, at 30° C. (for P. aeruginosa or P. fluorescens) or 37° C. (for S. epidermidis), at 200 rpm, for 16–26 hours, in a humidity controlled environment.
(§3) Cells present in biofilm attached to the microplate surface are stained with CV either after removal of the liquid from each well, followed by rinsing three times (aspiration and addition) with 150 μl per well phosphate buffered saline solution (PBS) and final addition of 100 μl per well of PBS, or by direct addition of stain to bacterial cultures without rinsing. To 100 μl per well of PBS or of bacterial culture, 25 μl/well of 1% CV solution (in ˜10% ethanol) is added. After incubation at room temperature for 45 minutes, the dye solution is removed from the plates. Residual dye is immediately removed by gentle rinsing with a stream of deionized water by filling and inverting the plates 4–5 times, or by using an automated pipettor. Rinsed plates are air-dried at room temperature for 0.5–2 hours. Bound dye is extracted by the addition of 150 μL per well of 95% ethanol, followed by vigorous mixing for 10–15 seconds and incubation for 45 minutes at room temperature without shaking. Subsequently, either undiluted or diluted (in ethanol) samples of extracted CV are transferred to flat bottom, polystyrene microtiter plates and absorbances at 586 nm were measured in a microplate reader. Readings from wells containing compounds are compared to the average of data from control wells that contain only DMSO. Replicate samples are measured, and results are reported as averages of the replicate well data points.
(§4) Data are expressed in terms of the average percentage reduction of biofilm formed in the presence of each compound, relative to the DMSO controls, for quadruplicate samples. Assays are run using the three compound concentrations indicated. Positive numbers indicate prevention of biofilm formation by a compound, and negative numbers indicate enhancement of biofilm formation by a compound (percentage coefficients of variation are ≦10%).

Row | SMILES | inhibition at 32 µM
1 | CCCCCCCCCCCCNC(=O)[C@@H]1CCCN1C(=O)OC(C)(C)C [Compound 160] | -1%
2 | CCCCCCCCCCCCNC(=O)[C@@H]1CCN1 [Compound 290] | -12%

same assay, conditions: Pseudomonas fluorescens, ATCC13525, 160 μM, positive = prevention, negative = enhancement of biofilm formation, quadruplicate, read-out: average percentage reduction of biofilm formed relative to DMSO controls

Row | SMILES | inhibition at 160 µM
3 | CCCCCCCCCCCCNC(=O)[C@@H]1CCCN1C(=O)OC(C)(C)C [Compound 160] | 0%
4 | CCCCCCCCCCCCNC(=O)[C@@H]1CCN1 [Compound 290] | 98%

same assay, conditions: Pseudomonas fluorescens, ATCC13525, 390 μM, positive = prevention, negative = enhancement of biofilm formation, quadruplicate, read-out: average percentage reduction of biofilm formed relative to DMSO controls

Row | SMILES | inhibition at 390 µM
5 | CCCCCCCCCCCCNC(=O)[C@@H]1CCCN1C(=O)OC(C)(C)C [Compound 160] | -18%
6 | CCCCCCCCCCCCNC(=O)[C@@H]1CCN1 [Compound 290] | 93%

test system: P. aeruginosa strain PAO1; assay: as above; format: cell-based; conditions: Pseudomonas aeruginosa, 32 μM, positive = prevention, negative = enhancement of biofilm formation, quadruplicate, read-out: average percentage reduction of biofilm formed relative to DMSO controls
Method: as §1, §2, §3, §4

Row | SMILES | inhibition at 32 µM
7 | CCCCCCCCCCCCNC(=O)[C@@H]1CCCN1C(=O)OC(C)(C)C [Compound 160] | -2%
8 | CCCCCCCCCCCCNC(=O)[C@@H]1CCN1 [Compound 290] | 6%

same assay, conditions: Pseudomonas aeruginosa, 160 μM, positive = prevention, negative = enhancement of biofilm formation, quadruplicate, read-out: average percentage reduction of biofilm formed relative to DMSO controls

Row | SMILES | inhibition at 160 µM
9 | CCCCCCCCCCCCNC(=O)[C@@H]1CCCN1C(=O)OC(C)(C)C [Compound 160] | -44%
10 | CCCCCCCCCCCCNC(=O)[C@@H]1CCN1 [Compound 290] | -16%

same assay, conditions: Pseudomonas aeruginosa, 390 μM, positive = prevention, negative = enhancement of biofilm formation, quadruplicate, read-out: average percentage reduction of biofilm formed relative to DMSO controls

Row | SMILES | inhibition at 390 µM
11 | CCCCCCCCCCCCNC(=O)[C@@H]1CCCN1C(=O)OC(C)(C)C [Compound 160] | -59%
12 | CCCCCCCCCCCCNC(=O)[C@@H]1CCN1 [Compound 290] | 37%

test system: S. epidermidis strain ATCC 35984; assay: as above; format: cell-based; conditions: Staphylococcus epidermidis, ATCC35984, 32 μM, positive = prevention, negative = enhancement of biofilm formation, quadruplicate, read-out: average percentage reduction of biofilm formed relative to DMSO controls
Method: as §1, §2, §3, §4

Row | SMILES | inhibition at 32 µM
13 | CCCCCCCCCCCCNC(=O)[C@@H]1CCCN1C(=O)OC(C)(C)C [Compound 160] | -9%
14 | CCCCCCCCCCCCNC(=O)[C@@H]1CCN1 [Compound 290] | 101%

same assay, conditions: Staphylococcus epidermidis, ATCC35984, 160 μM, positive = prevention, negative = enhancement of biofilm formation, quadruplicate, read-out: average percentage reduction of biofilm formed relative to DMSO controls

Row | SMILES | inhibition at 160 µM
15 | CCCCCCCCCCCCNC(=O)[C@@H]1CCCN1C(=O)OC(C)(C)C [Compound 160] | 20%
16 | CCCCCCCCCCCCNC(=O)[C@@H]1CCN1 [Compound 290] | 100%

same assay, conditions: Staphylococcus epidermidis, ATCC35984, 390 μM, positive = prevention, negative = enhancement of biofilm formation, quadruplicate, read-out: average percentage reduction of biofilm formed relative to DMSO controls

Row | SMILES | inhibition at 390 µM
17 | CCCCCCCCCCCCNC(=O)[C@@H]1CCCN1C(=O)OC(C)(C)C [Compound 160] | 29%
18 | CCCCCCCCCCCCNC(=O)[C@@H]1CCN1 [Compound 290] | 97%

test system: P. fluorescens strain ATCC 13525; assay: Improved biofilm dispersion screen (already-formed biofilms, crystal violet); format: cell-based; conditions: Pseudomonas fluorescens, ATCC13525, 20 mM NaOH step, positive = dispersion, negative = enhancement of pre-existing biofilm, quadruplicate, read-out: average percentage reduction of biofilm relative to the two control values (dispersion)
Method: (§5) A modification of method disclosed in Reference Example 2, which greatly improves the sensitivity and reproducibility of the dispersion screen is hereby disclosed. […] In the modification described herein, compounds are added in the presence of the fresh liquid growth media, such that the resultant biofilms continue to grow, unless a test compound triggers their dispersion. Overnight cultures are made as above, and 100 μL of the appropriate liquid growth media are dispensed into duplicate 96 well microplates—in this fashion, two identical microplates are set up for each bacterial species to be assayed. Neither compounds nor DMSO are added prior to the inoculation of bacteria, and growth in the duplicate plates for 24 hours is allowed using the conditions specified in Reference Example 1. After growth of biofilm to be tested in the wells, cells present in biofilm attached to one of the duplicate microplates is stained with CV, quantitated as described in Reference Example 1, and the data for the entire plate averaged, resulting in a growth control value, t0. The remaining replicate of each microplate pairs is treated with compounds in DMSO, or DMSO alone for control wells, by first removing the cell suspensions from the wells, then adding fresh 100 μL volumes of the same appropriate liquid growth media, followed by direct addition and mixing of the compound DMSO solutions to give final compound concentrations of 390 μM. Incubation of the compound-containing microplates is then continued for an additional 22–26 hours using the same conditions described in Reference Example 1. Cell suspensions are then removed, 100 μL per well of a 0 mM NaOH (S. epidermidis), 20 mM NaOH (P. fluorescens), or 30 mM NaOH (P. aeruginosa) solution in PBS is added, and incubation at room temperature is allowed for 30 minutes. No addition of NaOH is made to the S. epidermidis suspension since a test assay indicated no amplification by base with S. epidermidis. The microplates are subsequently rinsed three times with 150 μL per well of PBS, followed by final liquid removal, staining with CV and quantitation as described in Reference Example 1. Data for each well that contained compound result in a compound value, R, and data for control wells that contained DMSO only are averaged to generate a second control value, t24. The effect of each compound tested on dispersion of the biofilm compared to the two control values is calculated thus: [formula] […] Data are expressed in terms of the average percentage reduction of biofilm formed in the presence of each compound, relative to the two control values, for quadruplicate samples. Assays are run as described above, using compound concentrations of 390 μM. Positive numbers indicate dispersion (reduction) of pre-existing biofilms by a compound, and negative numbers indicate enhancement (stimulation of growth) of pre-existing biofilms by a compound (percentage coefficients of variation are ≦15%).

Row | SMILES | inhibition at 390 µM
19 | CCCCCCCCCCCCNC(=O)[C@@H]1CCCN1C(=O)OC(C)(C)C [Compound 160] | -44%
20 | CCCCCCCCCCCCNC(=O)[C@@H]1CCN1 [Compound 290] | 21%

test system: P. aeruginosa strain PAO1; assay: as above; format: cell-based; conditions: Pseudomonas aeruginosa, 30 mM NaOH step, positive = dispersion, negative = enhancement of pre-existing biofilm, quadruplicate, read-out: average percentage reduction of biofilm relative to the two control values (dispersion)
Method: as §5

Row | SMILES | inhibition at 390 µM
21 | CCCCCCCCCCCCNC(=O)[C@@H]1CCCN1C(=O)OC(C)(C)C [Compound 160] | -52%
22 | CCCCCCCCCCCCNC(=O)[C@@H]1CCN1 [Compound 290] | -72%

test system: S. epidermidis strain ATCC 35984; assay: as above; format: cell-based; conditions: Staphylococcus epidermidis, ATCC35984, no NaOH, positive = dispersion, negative = enhancement of pre-existing biofilm, quadruplicate, read-out: average percentage reduction of biofilm relative to the two control values (dispersion)
Method: as §5

Row | SMILES | inhibition at 390 µM
23 | CCCCCCCCCCCCNC(=O)[C@@H]1CCCN1C(=O)OC(C)(C)C [Compound 160] | 0%
24 | CCCCCCCCCCCCNC(=O)[C@@H]1CCN1 [Compound 290] | 82%
